Several values for one entry are separate records, joined by “and”; a condition that tells them apart may be missing. Identical values can stand only once.
Assay: Dose uniformity, Dosage Unit Sampling Apparatus (DUSA), USP <601>
Format: physicochemical
Conditions: Spinhaler; for Total recovered / amount in Device + Capsule: listed as MON; for amount in Device + Capsule: nominal 1000 μg MON, 400 μg MOM
Description: Dose uniformity was determined using Apparatus B (Dosage Unit Sampling Apparatus—DUSA) at a flow rate of 100 L/min (test described in United States Pharmacopoeia (USP) 27 Chapter <601>). The USP recommends selecting a flow rate that creates a pressure drop of 4 kPa across the inhaler. With the Spinhaler, a 4 kPa pressure drop could not be achieved even at the maximum flow rate of 100 L/min. Based on the recommendations of Byron, et al., a flow rate of 100 L/min was selected since the Spinhaler is a low resistance device. See Michael Hindle and Peter R. Byron, “Dose emissions from marketed dry powder inhalers”, International Journal of Pharmaceutics 116 (1995) 169-177. The test was run for 2.4 seconds in order to pull 4 L of air. After a shot had been delivered, all pieces of the DUSA including the mouthpiece adapter were rinsed with solvent. To determine the amount of drug retained in the inhaler, all pieces of the inhaler were rinsed with solvent including the interior of the capsule. The samples were then assayed using the UV-Vis spectrophotometer.
Shot weight was obtained by measuring the weight loss due to the actuation of the device. The device was tared, a “shot” was wasted in the DUSA and the device was re-weighed to obtain the delivered shot weight. Dose and shot weight were deemed acceptable if they were within 75% to 125% of the theoretical values (USP <601>).
(§1) Dose Uniformity (DU) was performed according to USP Chapter <601> by using DUSA Apparatus B with the Spinhaler® device which is analogous to that described in section Dose Uniformity for Example 1. However, the HPLC was used to analyze the content of the drugs as described in the Blend Uniformity in this example.
as §1, with “Uniformity” for “Uniformity (DU)”, “device and in a manner” for “device which is”, “Uniformity in” for “Uniformity for”, “Example 4, except” for “Example 1. However,”

[1] = Example 4 blend, flow 61.5 L/min for 3.9 sec
[2] = Example 4 blend, flow 62.3 L/min for 3.9 sec
[3] = Example 4 blend, flow 62.8 L/min for 3.8 sec

Question: Which “DU based on nominal dose, % (Device + Capsule)” value (Example 4 blend) does the source give for `CC(C)(O)c1ccccc1CC[C@@H](SCC1(CC(=O)O)CC1)c1cccc(/C=C/c2ccc3ccc(Cl)cc3n2)c1` [Montelukast Acid, montelukast acid] here?
Answer: *46.6%

Question: What about the “DU based on nominal dose, % (printed in Adapter + Filter column)” value (Example 4 blend) of the same compound?
Answer: 49.3%

Question: And the “DU based on total recovered, % (Device + Capsule)” value (Example 4 blend)?
Answer: **48.6%

Question: And the “DU based on total recovered, % (printed in Adapter + Filter column)” value (Example 4 blend)?
Answer: 51.4%

Question: And the “Total recovered” value [1]?
Answer: 952.06 µg and 949.00 µg and 958.48 µg

Question: What about the “Total recovered” value [2] of the same compound?
Answer: 983.22 µg and 979.15 µg

Question: What about the “Total recovered” value [3] of the same compound?
Answer: 937.91 µg and 949.52 µg

Question: What about the “amount in Device + Capsule” value [1] of the same compound?
Answer: 465.70 µg and 463.98 µg and 465.53 µg

Question: What about the “amount in Device + Capsule” value [2] of the same compound?
Answer: 462.40 µg and 459.39 µg

Question: What about the “amount in Device + Capsule” value [3] of the same compound?
Answer: 468.24 µg and 473.48 µg

Question: What about the “DU based on nominal dose, % (Device + Capsule)” value (Example 5 blend) of the same compound?
Answer: *44.5%

Question: And the “DU based on nominal dose, % (printed in Adapter + Filter column)” value (Example 5 blend)?
Answer: 47.8%

Question: And the “DU based on total recovered, % (Device + Capsule)” value (Example 5 blend)?
Answer: **48.2%

Question: What about the “DU based on total recovered, % (printed in Adapter + Filter column)” value (Example 5 blend) of the same compound?
Answer: 51.8%

Source: US20100210611A1, “COMBINATION THERAPY” (priority 2007, published 2010)
